# Measurements: patent US20210024542A1 (Torcept Therapeutics, Inc., priority 2018, published 2021)
# What was measured:
# Hs 852.T = experiment: OncoPanel cell proliferation assay, Hs 852.T; format: cell-based, human; settings: for Cell Count Activity Area: scale 0-10
# Protocol: (§1) Cells were grown in RPMI 1640, 10% FBS, 2 mM L-alanyl-L-glutamine, 1 mM Na pyruvate, or a special medium. Cells were seeded into 384-well plates and incubated in a humidified atmosphere of 5% CO2 at 37° C. Compounds were added the day following cell seeding. At the same time, a time zero untreated cell plate was generated. After a 3-day incubation period, cells were fixed and stained to allow fluorescence imaging of nuclei. Compounds (1 mM stock solutions) were serially diluted in half-log steps from the highest test concentration ([…]), and assayed over 10 concentrations with a maximum assay concentration of 0.1% DMSO. Automated fluorescence microscopy was carried out using a Molecular Devices ImageXpress Micro XL high-content imager, and images were collected with a 4× objective. 16-bit TIFF images were acquired and analyzed with MetaXpress 5.1.0.41 software.
# (§2) Cell proliferation was measured by the fluorescence intensity of an incorporated nuclear dye. The output is referred to as the relative cell count, where the measured nuclear intensity is transformed to percent of control (POC) using the following formula: […]
# (§3) Cellular response parameters were calculated using nonlinear regression to a sigmoidal single-site dose response model:
# (§4) Where y is a response measured at concentration x, A and B are the lower and upper limits of the response, C is the concentration at the response midpoint (EC50), and D is the Hill Slope (Ref. 1).
# (§5) EC50 is the test compound concentration at the curve inflection point or half the effective response (parameter C of the fitted curve solution). GI50 is the concentration needed to reduce the observed growth by half (midway between the curve maximum and the time zero value). “Cell Count Activity Area” is an estimate of the integrated area above the curve (Barretina, et al. The Cancer Cell Line Encyclopedia enables predictive modelling of anticancer drug sensitivity. Nature 483: 603-607). […] In rare instances, values <0 or >10 may be observed. […] Curve-fitting, calculations, and report generation was performed using a custom data reduction engine and MathIQ based software (AIM).
# SK-NEP-1 = experiment: OncoPanel cell proliferation assay, SK-NEP-1; settings: SK-NEP-1, scale 0-10
# Protocol: (§6) Cells were seeded into 384-well plates and incubated in a humidified atmosphere of 5% CO2 at 37° C. Compounds were added the day following cell seeding. At the same time, a time zero untreated cell plate was generated. After a 3-day incubation period, cells were fixed and stained to allow fluorescence imaging of nuclei. Compounds (1 mM stock solutions) were serially diluted in half-log steps from the highest test concentration (1 micromol), and assayed over 10 concentrations with a maximum assay concentration of 0.1% DMSO. Automated fluorescence microscopy was carried out using a Molecular Devices ImageXpress Micro XL high-content imager, and images were collected with a 4× objective. 16-bit TIFF images were acquired and analyzed with MetaXpress 5.1.0.41 software.
# (§7) GI50 is the concentration needed to reduce the observed growth by half (midway between the curve maximum and the time zero value). […] In rare instances, values <0 or >10 may be observed. […] Curve-fitting, calculations, and report generation was performed using a custom data reduction engine and MathIQ based software (AIM).
# U-138MG = experiment: OncoPanel cell proliferation assay, U-138MG; format: cell-based, human; settings: U-138MG; for Cell Count Activity Area: scale 0-10
# Protocol: as §1, §2, §3, §4, §5
# A431 = experiment: OncoPanel cell proliferation assay, A431; format: cell-based, human; settings: for Cell Count Activity Area: A431, scale 0-10
# Protocol: as §1, §2, §3, §4, §5
# U-87 MG = experiment: OncoPanel cell proliferation assay, U-87 MG; format: cell-based, human; settings: for Cell Count Activity Area: scale 0-10
# Protocol: as §1, §2, §3, §4, §5
# 786-O = experiment: OncoPanel cell proliferation assay, 786-O; format: cell-based, human; settings: 786-O, scale 0-10
# Protocol: as §1, §2, §3, §4, §5
# SK-UT-1 = experiment: OncoPanel cell proliferation assay, SK-UT-1; settings: for Cell Count Activity Area: SK-UT-1, scale 0-10
# Protocol: as §6, §7
# RL95-2 = experiment: OncoPanel cell proliferation assay, RL95-2; format: cell-based, human; settings: for Cell Count Activity Area: RL95-2, scale 0-10
# Protocol: as §1, §2, §3, §4, §5
# SW579 = experiment: OncoPanel cell proliferation assay, SW579; format: cell-based, human; settings: for Cell Count Activity Area: SW579, scale 0-10
# Protocol: as §1, §2, §3, §4, §5
# CAMA-1 = experiment: OncoPanel cell proliferation assay, CAMA-1; settings: for Cell Count Activity Area: CAMA-1, scale 0-10
# Protocol: as §6, §7
# G-402 = experiment: OncoPanel cell proliferation assay, G-402; format: cell-based, human; settings: G-402, scale 0-10
# Protocol: as §1, §2, §3, §4, §5
# CEM-C1 = experiment: OncoPanel cell proliferation assay, CEM-C1; format: cell-based, human; settings: for Cell Count Activity Area: CEM-C1, scale 0-10; for IC50: Homo sapiens, 72 h, CEM-C1, 3-day incubation, read-out: Cell Count IC50
# Protocol: as §1, §2, §3, §4, §5
# CHP-212 = experiment: OncoPanel cell proliferation assay, CHP-212; settings: for Cell Count Activity Area: CHP-212, scale 0-10
# Protocol: as §6, §7
# [1] = Homo sapiens, 72 h, 3-day incubation, read-out: Cell Count IC50
SMILES,Cell Count Activity Area (Hs 852.T),Cell Count Activity Area (SK-NEP-1),Cell Count Activity Area (U-138MG),Cell Count Activity Area (A431),Cell Count Activity Area (U-87 MG),Cell Count Activity Area (786-O),Cell Count Activity Area (SK-UT-1),Cell Count Activity Area (RL95-2),Cell Count Activity Area (SW579),Cell Count Activity Area (CAMA-1),Cell Count Activity Area (G-402),Cell Count Activity Area (CEM-C1),IC50 (CEM-C1),Cell Count Activity Area (CHP-212),other results
"CO[C@H]1C[C@@H]2CC[C@@H](C)[C@@](O)(O2)C(=O)C(=O)N2CCCC[C@H]2C(=O)O[C@H]([C@H](C)C[C@@H]2CC[C@@H](O)[C@H](OC)C2)CC(=O)[C@H](C)/C=C(\C)[C@@H](O)[C@@H](OC)C(=O)[C@H](C)C[C@H](C)/C=C/C=C/C=C/1C [Rapamycin, reference compound]",1.43,4.22,3.14,0.28,3.79,4.17,3.23,4.24,4.77,4.07,4.68,3.61,> 1000 nM,4.13,"EC50 (Hs 852.T; Homo sapiens, 72 h, 3-day incubation, read-out: Cell Count EC50): > 1000 nM; GI50 (Hs 852.T; Homo sapiens, 72 h, 3-day incubation, read-out: Cell Count GI50): > 1000 nM; IC50 (Hs 852.T; [1]): > 1000 nM; IC50 (U-138MG; Homo sapiens, U138-MG, 72 h, 3-day incubation, read-out: Cell Count IC50): > 1000 nM; EC50 (A431; Homo sapiens, A-431, 72 h, A431, 3-day incubation, read-out: Cell Count EC50): > 1000 nM; GI50 (A431; Homo sapiens, A-431, 72 h, A431, 3-day incubation, read-out: Cell Count GI50): > 1000 nM; IC50 (A431; Homo sapiens, A-431, 72 h, A431, 3-day incubation, read-out: Cell Count IC50): > 1000 nM; IC50 (U-87 MG; [1]): > 1000 nM; EC50 (SK-UT-1; Homo sapiens, SK-UT-1, 72 h, read-out: Cell Count EC50): 0.2 nM; GI50 (SK-UT-1; Homo sapiens, SK-UT-1, 72 h, read-out: Cell Count GI50): > 1000 nM; IC50 (SK-UT-1; Homo sapiens, SK-UT-1, 72 h, read-out: Cell Count IC50): > 1000 nM; GI50 (RL95-2; Homo sapiens, 72 h, RL95-2, 3-day incubation, read-out: Cell Count GI50): 0.13 nM; IC50 (RL95-2; Homo sapiens, 72 h, RL95-2, 3-day incubation, read-out: Cell Count IC50): > 1000 nM; IC50 (SW579; Homo sapiens, 72 h, SW579, 3-day incubation, read-out: Cell Count IC50): > 1000 nM; IC50 (CHP-212; Homo sapiens, CHP-212, 72 h, read-out: Cell Count IC50): > 1000 nM"
"CN[C@@H]1C[C@H]2O[C@@](C)([C@@H]1OC)n1c3ccccc3c3c4c(c5c6ccccc6n2c5c31)C(=O)NC4 [Staurosporine, reference compound]",3.16,2.78,3.72,5.64,3.25,4.87,3.46,3.87,6.09,2.99,5.93,4.28,9.2 nM,4.80,"EC50 (SW579; Homo sapiens, 72 h, SW579, 3-day incubation, read-out: Cell Count EC50): 0.52 nM; GI50 (CAMA-1; Homo sapiens, CAMA-1, 72 h, read-out: Cell Count GI50): 12 nM; IC50 (CAMA-1; Homo sapiens, CAMA-1, 72 h, read-out: Cell Count IC50): 99 nM"
